# Measured values as given in publication PMC6811774, “Potent, selective, and subunit‐dependent activation of TRPC5 channels by a xanthine derivative” (British Journal of Pharmacology, 2019).
# Assays:
# [1] = target: T1, TRPC6 (Homo sapiens, UniProt Q9Y210); assay: [Ca2+]i selectivity assay, WT HEK 293 cells transiently transfected with hTRPC6, OAG activation; format: cell-based; conditions: 300 nM AM237; 100 μM OAG
# T1 construct: expressed in transfected cells; host or cells: WT HEK 293 (transient, jetPRIME; pcDNA3)
# T1 sequence (Q9Y210 1-931): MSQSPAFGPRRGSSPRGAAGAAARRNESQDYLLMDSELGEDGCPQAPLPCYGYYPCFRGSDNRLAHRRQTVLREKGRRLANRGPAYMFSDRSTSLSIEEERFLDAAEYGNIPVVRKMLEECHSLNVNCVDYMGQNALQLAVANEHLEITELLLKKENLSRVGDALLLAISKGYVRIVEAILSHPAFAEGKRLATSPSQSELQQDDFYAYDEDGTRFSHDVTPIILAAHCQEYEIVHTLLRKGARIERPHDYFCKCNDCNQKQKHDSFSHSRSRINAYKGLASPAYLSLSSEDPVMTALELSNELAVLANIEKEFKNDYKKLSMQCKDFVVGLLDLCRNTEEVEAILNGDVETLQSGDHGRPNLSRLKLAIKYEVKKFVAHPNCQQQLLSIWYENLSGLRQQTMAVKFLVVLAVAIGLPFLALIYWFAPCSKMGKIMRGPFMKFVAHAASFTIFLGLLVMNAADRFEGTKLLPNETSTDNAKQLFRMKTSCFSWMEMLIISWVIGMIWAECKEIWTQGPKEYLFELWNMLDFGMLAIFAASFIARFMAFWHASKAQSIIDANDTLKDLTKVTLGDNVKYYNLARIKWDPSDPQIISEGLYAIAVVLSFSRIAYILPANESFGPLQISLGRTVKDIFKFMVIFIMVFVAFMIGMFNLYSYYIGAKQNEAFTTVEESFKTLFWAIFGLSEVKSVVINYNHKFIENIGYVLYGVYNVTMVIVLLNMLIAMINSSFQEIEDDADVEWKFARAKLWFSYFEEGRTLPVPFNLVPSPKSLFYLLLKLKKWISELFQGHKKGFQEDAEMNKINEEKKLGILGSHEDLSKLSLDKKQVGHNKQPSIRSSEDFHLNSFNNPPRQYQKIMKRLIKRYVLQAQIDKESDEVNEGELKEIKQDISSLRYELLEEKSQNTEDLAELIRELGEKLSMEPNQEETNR
# [2] = target: T2, TRPV4 (Homo sapiens, UniProt Q9HBA0); assay: [Ca2+]i selectivity assay, CHO cells stably expressing hTRPV4, 4α-PDD activation; format: cell-based; conditions: 300 nM AM237; 5 μM 4α-PDD
# T2 construct: expressed in transfected cells
# T2 sequence (Q9HBA0 whole entry): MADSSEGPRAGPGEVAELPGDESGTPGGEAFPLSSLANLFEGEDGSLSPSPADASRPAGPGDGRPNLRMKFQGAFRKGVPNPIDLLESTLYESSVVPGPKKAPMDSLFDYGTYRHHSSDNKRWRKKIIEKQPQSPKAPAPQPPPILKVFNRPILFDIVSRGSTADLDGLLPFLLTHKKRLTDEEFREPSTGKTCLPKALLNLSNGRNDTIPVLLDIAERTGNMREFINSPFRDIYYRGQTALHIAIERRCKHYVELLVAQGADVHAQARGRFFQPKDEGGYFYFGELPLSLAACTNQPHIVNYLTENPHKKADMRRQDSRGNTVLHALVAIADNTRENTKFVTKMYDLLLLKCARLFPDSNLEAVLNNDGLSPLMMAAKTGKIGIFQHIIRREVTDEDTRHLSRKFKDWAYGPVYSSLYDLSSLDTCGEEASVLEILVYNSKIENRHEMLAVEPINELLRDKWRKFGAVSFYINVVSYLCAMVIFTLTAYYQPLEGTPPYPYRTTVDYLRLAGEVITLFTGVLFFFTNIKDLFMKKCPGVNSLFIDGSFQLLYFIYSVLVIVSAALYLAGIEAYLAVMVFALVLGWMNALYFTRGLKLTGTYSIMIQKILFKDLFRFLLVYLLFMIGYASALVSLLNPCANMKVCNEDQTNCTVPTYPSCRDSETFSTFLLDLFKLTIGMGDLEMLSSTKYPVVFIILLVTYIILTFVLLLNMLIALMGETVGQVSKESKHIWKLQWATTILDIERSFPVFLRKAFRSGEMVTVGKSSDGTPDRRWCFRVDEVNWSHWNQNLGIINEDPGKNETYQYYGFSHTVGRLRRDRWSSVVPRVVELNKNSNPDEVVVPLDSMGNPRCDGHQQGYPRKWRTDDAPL
# [3] = system: HEK T-REx (Tet+) cells expressing TRPC5; assay: LIVE/DEAD cell viability assay; format: cell-based, human; conditions: AM237 up to 1 μM, 30 min
# Experimental: Cell viability was assayed using the LIVE/DEAD® cell viability kit (Molecular Probes™, Eugene, Oregon, USA). HEK T‐REx expressing tetracycline‐inducible hTRPC5 were plated onto black, clear bottom poly‐D‐lysine‐coated 96‐well plates, at 25,000 cells per well, and TRPC5 protein expression was induced with 1 μg·ml^−1 tetracycline. Cells were cultured for 24 hr in DMEM‐F12 GlutaMAX (Invitrogen, Paisley, UK) containing 10% FBS, with the addition of blasticidin (10 μg·ml^−1) and zeocin (400 μg·ml^−1). For wells containing methanol‐treated positive control cells, medium was removed and 70% methanol/distilled water (100 μl) was added and cells returned to the incubator for 30 min. After incubation, the solution in each well was replaced with recording buffer (SBS with 0.01% pluronic acid and 0.05% DMSO; 100 μl). The LIVE/DEAD® (Molecular Probes™, Eugene, Oregon, US) cell viability kit was used to stain the cells. Calcein AM (5 μl) and ethidium homodimer‐1 (20 μl) were added to SBS with […] (10 ml). Compound and vehicle dilutions were carried out directly in LIVE/DEAD® solution and 100 μl of each was added to the recording buffer in each corresponding well. Cells were incubated for 30 min and immediately imaged. Imaging and analysis was carried out on the IncuCyte® ZOOM (Essen Bioscience, Welwyn Garden City, UK).
compound,measurement,setting,value
Cn1c(=O)n(CCCO)c(=O)c2c1nc(Oc1ccc(Cl)c(OC(F)(F)F)c1)n2Cc1ccc(Cl)cc1 [AM237],Activation or inhibition of TRPC6,[1],no activation or inhibition
same,Activation or inhibition of TRPV4,[2],no activation or inhibition
same,Cell viability (LIVE/DEAD),[3],did not lead to reduced
